{"source": "ChEMBL document CHEMBL1150318", "about": "“Discovery of a novel, orally active himbacine-based thrombin receptor antagonist (SCH 530348) with potent antiplatelet activity” (J Med Chem, 2008)", "key": {"[1]": {"target": "T1, Proteinase-activated receptor 1 (Homo sapiens, UniProt P25116)", "T1 sequence (P25116 whole entry)": "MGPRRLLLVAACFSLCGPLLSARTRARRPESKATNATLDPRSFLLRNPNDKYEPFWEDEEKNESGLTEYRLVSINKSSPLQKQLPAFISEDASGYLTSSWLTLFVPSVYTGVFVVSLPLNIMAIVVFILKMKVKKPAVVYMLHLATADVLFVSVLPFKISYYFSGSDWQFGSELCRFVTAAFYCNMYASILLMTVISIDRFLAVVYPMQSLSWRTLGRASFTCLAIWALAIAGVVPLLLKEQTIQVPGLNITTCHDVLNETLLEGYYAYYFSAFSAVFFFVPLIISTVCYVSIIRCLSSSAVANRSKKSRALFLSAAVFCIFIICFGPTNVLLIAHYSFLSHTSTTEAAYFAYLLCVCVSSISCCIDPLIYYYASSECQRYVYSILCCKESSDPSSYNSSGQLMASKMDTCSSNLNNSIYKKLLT", "test": "Displacement of [3H]haTRAP from PAR1 in human platelets"}, "[2]": {"test": "AUC (0 to 24 hrs) in cynomolgus monkey at 1 mg/kg, po after 24 hrs", "type": "ADME, organism-based, Macaca fascicularis", "design": "time < 24 hr, dose 1 mg/kg, route oral", "conditions": "plasma"}, "[3]": {"test": "Cmax in cynomolgus monkey at 1 mg/kg, po after 24 hrs", "type": "ADME, organism-based, Macaca fascicularis", "design": "dose 1 mg/kg, route oral", "conditions": "in vivo"}, "[4]": {"test_system": "Platelet", "test": "Ex vivo inhibition of haTRAP-induced platelet aggregation in cynomolgus monkey at 1 mg/kg, po after 24 hrs by impedance aggregometry", "type": "functional", "conditions": "Macaca fascicularis"}, "[5]": {"test_system": "Platelet", "test": "Ex vivo inhibition of haTRAP-induced platelet aggregation in cynomolgus monkey at 0.5 mg/kg, po by impedance aggregometry", "type": "functional, organism-based", "design": "dose 0.5 mg/kg", "conditions": "Macaca fascicularis"}, "[6]": {"test_system": "Platelet", "test": "Ex vivo inhibition of haTRAP-induced platelet aggregation in cynomolgus monkey at 1 mg/kg, po after 6 hrs by impedance aggregometry", "type": "functional", "conditions": "Macaca fascicularis"}, "[7]": {"test": "Cmax in cynomolgus monkey at 0.1 mg/kg, po after 24 hrs", "type": "ADME, organism-based, Macaca fascicularis", "design": "dose 0.1 mg/kg, route oral", "conditions": "in vivo"}, "[8]": {"test_system": "Platelet", "test": "Ex vivo inhibition of haTRAP-induced platelet aggregation in cynomolgus monkey at 0.1 mg/kg, po after 24 hrs by impedance aggregometry", "type": "functional", "conditions": "Macaca fascicularis"}, "[9]": {"test": "AUC (0 to 24 hrs) in cynomolgus monkey at 0.1 mg/kg, po after 24 hrs", "type": "ADME, organism-based, Macaca fascicularis", "design": "time < 24 hr, dose 0.1 mg/kg, route oral", "conditions": "plasma"}}, "note": "Calls of active or inactive are those of the source. The rule behind the calls is not given here."}
{"smiles": "CCCN(C(=O)OCC)[C@@H]1CC[C@@H]2[C@@H](C1)C[C@H]1C(=O)O[C@H](C)[C@H]1[C@H]2/C=C/c1ccc(-c2cccc(F)c2)cn1", "values": [{"measurement": "Ki", "setting": "[1]", "value": 89, "unit": "nM"}]}
{"smiles": "CC(=O)N[C@@H]1CC[C@@H]2[C@@H](C1)C[C@H]1C(=O)O[C@H](C)[C@H]1[C@H]2/C=C/c1ccc(-c2cccc(C(F)(F)F)c2)cn1", "values": [{"measurement": "Ki", "setting": "[1]", "value": 30, "unit": "nM"}]}
{"smiles": "C[C@H]1OC(=O)[C@@H]2C[C@@H]3C[C@H](NC(=O)C4CC4)CC[C@H]3[C@H](/C=C/c3ccc(-c4cccc(F)c4)cn3)[C@H]12", "values": [{"measurement": "AUC(0-t) at 24 h", "setting": "[2]", "value": 5.53, "unit": "µM·h"}, {"measurement": "Ki", "setting": "[1]", "value": 6.5, "unit": "nM"}, {"measurement": "Cmax", "setting": "[3]", "value": 390, "unit": "nM"}, {"measurement": "inhibition in vivo at 1 mg/kg", "setting": "[4]", "value": 100, "unit": "%"}]}
{"smiles": "CCOC(=O)N[C@@H]1CC[C@@H]2[C@@H](C1)C[C@H]1C(=O)O[C@H](C)[C@H]1[C@H]2/C=C/c1ccc(-c2cc(F)cc(F)c2)cn1", "values": [{"measurement": "Ki", "setting": "[1]", "value": 5.9, "unit": "nM"}]}
{"smiles": "CCOC(=O)N[C@@H]1CC[C@@H]2[C@@H](C1)C[C@H]1C(=O)O[C@H](C)[C@H]1[C@H]2/C=C/c1ccc(-c2cccc(OC)c2)cn1", "values": [{"measurement": "Ki", "setting": "[1]", "value": 5.9, "unit": "nM"}]}
{"smiles": "CCOC(=O)N(C)[C@@H]1CC[C@@H]2[C@@H](C1)C[C@H]1C(=O)O[C@H](C)[C@H]1[C@H]2/C=C/c1ccc(-c2cccc(C(F)(F)F)c2)cn1", "values": [{"measurement": "Ki", "setting": "[1]", "value": 3.7, "unit": "nM"}]}
{"smiles": "CCOC(=O)N(C)[C@@H]1CC[C@@H]2[C@@H](C1)C[C@H]1C(=O)O[C@H](C)[C@H]1[C@H]2/C=C/c1ccc(-c2cccc(F)c2)cn1", "values": [{"measurement": "Ki", "setting": "[1]", "value": 4.1, "unit": "nM"}, {"measurement": "Activity", "setting": "[5]", "value": "inactive"}]}
{"smiles": "COC(=O)N[C@@H]1CC[C@@H]2[C@@H](C1)C[C@H]1C(=O)O[C@H](C)[C@H]1[C@H]2/C=C/c1ccc(-c2cccc(F)c2)cn1", "values": [{"measurement": "Ki", "setting": "[1]", "value": 6.1, "unit": "nM"}]}
{"smiles": "C[C@H]1OC(=O)[C@@H]2C[C@@H]3C[C@H](NS(C)(=O)=O)CC[C@H]3[C@H](/C=C/c3ccc(-c4cccc(C(F)(F)F)c4)cn3)[C@H]12", "values": [{"measurement": "Ki", "setting": "[1]", "value": 10, "unit": "nM"}]}
{"smiles": "CCC(=O)N[C@@H]1CC[C@@H]2[C@@H](C1)C[C@H]1C(=O)O[C@H](C)[C@H]1[C@H]2/C=C/c1ccc(-c2cccc(F)c2)cn1", "values": [{"measurement": "AUC(0-t) at 24 h", "setting": "[2]", "value": 11.4, "unit": "µM·h"}, {"measurement": "Ki", "setting": "[1]", "value": 6.4, "unit": "nM"}, {"measurement": "Cmax", "setting": "[3]", "value": 750, "unit": "nM"}, {"measurement": "inhibition in vivo at 1 mg/kg", "setting": "[4]", "value": 100, "unit": "%"}]}
{"smiles": "C[C@H]1OC(=O)[C@@H]2C[C@@H]3C[C@H](NC(=O)OC(C)(C)C)CC[C@H]3[C@H](/C=C/c3ccc(-c4cccc(C#N)c4)cn3)[C@H]12", "values": [{"measurement": "Ki", "setting": "[1]", "value": 44, "unit": "nM"}]}
{"smiles": "CCOC(=O)N[C@@H]1CC[C@@H]2[C@@H](C1)C[C@H]1C(=O)O[C@H](C)[C@H]1[C@H]2/C=C/c1ccc(-c2cccc(Cl)c2)cn1", "values": [{"measurement": "Ki", "setting": "[1]", "value": 11, "unit": "nM"}]}
{"smiles": "CC(=O)N[C@@H]1CC[C@@H]2[C@@H](C1)C[C@H]1C(=O)O[C@H](C)[C@H]1[C@H]2/C=C/c1ccc(-c2cccc(F)c2)cn1", "values": [{"measurement": "Ki", "setting": "[1]", "value": 6.2, "unit": "nM"}]}
{"smiles": "CNC(=O)N[C@@H]1CC[C@@H]2[C@@H](C1)C[C@H]1C(=O)O[C@H](C)[C@H]1[C@H]2/C=C/c1ccc(-c2cccc(F)c2)cn1", "values": [{"measurement": "AUC(0-t) at 24 h", "setting": "[2]", "value": 2.63, "unit": "µM·h"}, {"measurement": "Ki", "setting": "[1]", "value": 4.4, "unit": "nM"}, {"measurement": "Cmax", "setting": "[3]", "value": 260, "unit": "nM"}, {"measurement": "inhibition in vivo at 1 mg/kg", "setting": "[4]", "value": 55, "unit": "%"}]}
{"smiles": "C[C@H]1OC(=O)[C@@H]2C[C@@H]3C[C@H](N)CC[C@H]3[C@H](/C=C/c3ccc(-c4cccc(F)c4)cn3)[C@H]12", "values": [{"measurement": "Ki", "setting": "[1]", "value": 20, "unit": "nM"}, {"measurement": "inhibition in vivo at 1 mg/kg", "setting": "[6]", "value": "< 40", "unit": "%"}]}
{"smiles": "CCCOC(=O)N[C@@H]1CC[C@@H]2[C@@H](C1)C[C@H]1C(=O)O[C@H](C)[C@H]1[C@H]2/C=C/c1ccc(-c2cccc(F)c2)cn1", "values": [{"measurement": "Ki", "setting": "[1]", "value": 17, "unit": "nM"}]}
{"smiles": "CCOC(=O)N[C@@H]1CC[C@@H]2[C@@H](C1)C[C@H]1C(=O)O[C@H](C)[C@H]1[C@H]2/C=C/c1ccc(-c2ccccc2F)cn1", "values": [{"measurement": "Cmax", "setting": "[7]", "value": 24, "unit": "nM"}, {"measurement": "inhibition in vivo at 0.1 mg/kg", "setting": "[8]", "value": 80, "unit": "%"}, {"measurement": "AUC(0-t) at 24 h", "setting": "[9]", "value": 0.2, "unit": "µM·h"}, {"measurement": "Ki", "setting": "[1]", "value": 11, "unit": "nM"}]}
{"smiles": "CCOC(=O)N[C@@H]1CC[C@@H]2[C@@H](C1)C[C@H]1C(=O)O[C@H](C)[C@H]1[C@H]2/C=C/c1ccc(-c2cccc(C#N)c2)cn1", "values": [{"measurement": "Cmax", "setting": "[7]", "value": 200, "unit": "nM"}, {"measurement": "inhibition in vivo at 0.1 mg/kg", "setting": "[8]", "value": 80, "unit": "%"}, {"measurement": "AUC(0-t) at 24 h", "setting": "[9]", "value": 2.08, "unit": "µM·h"}, {"measurement": "Ki", "setting": "[1]", "value": 1.8, "unit": "nM"}]}
{"smiles": "C[C@H]1OC(=O)[C@@H]2C[C@@H]3C[C@H](NS(C)(=O)=O)CC[C@H]3[C@H](/C=C/c3ccc(-c4cccc(F)c4)cn3)[C@H]12", "values": [{"measurement": "Ki", "setting": "[1]", "value": 11, "unit": "nM"}, {"measurement": "inhibition in vivo at 1 mg/kg", "setting": "[6]", "value": "< 40", "unit": "%"}]}
{"smiles": "CCNC(=O)N[C@@H]1CC[C@@H]2[C@@H](C1)C[C@H]1C(=O)O[C@H](C)[C@H]1[C@H]2/C=C/c1ccc(-c2cccc(F)c2)cn1", "values": [{"measurement": "Ki", "setting": "[1]", "value": 4.8, "unit": "nM"}]}
{"smiles": "CCOC(=O)N[C@@H]1CC[C@@H]2[C@@H](C1)C[C@H]1C(=O)O[C@H](C)[C@H]1[C@H]2/C=C/c1ccc(-c2cccc(C)c2F)cn1", "values": [{"measurement": "AUC(0-t) at 24 h", "setting": "[2]", "value": 0.13, "unit": "µM·h"}, {"measurement": "Ki", "setting": "[1]", "value": 11, "unit": "nM"}, {"measurement": "Cmax", "setting": "[3]", "value": 20, "unit": "nM"}, {"measurement": "inhibition in vivo at 1 mg/kg", "setting": "[4]", "value": 100, "unit": "%"}]}
{"smiles": "CCOC(=O)N[C@@H]1CC[C@@H]2[C@@H](C1)C[C@H]1C(=O)O[C@H](C)[C@H]1[C@H]2/C=C/c1ccc(-c2cccc(C(N)=O)c2)cn1", "values": [{"measurement": "Ki", "setting": "[1]", "value": 367, "unit": "nM"}]}
